From publication PMC6254011, “Design, Synthesis and Anti-HIV Integrase Evaluation of 4-Oxo-4H-quinolizine-3-carboxylic Acid Derivatives” (Molecules, 2009)

Tests used:
[1] = biological target: T1, recombinant HIV integrase (Human immunodeficiency virus type 1 group M subtype B, UniProt P04585); experiment: HIV integrase inhibition assay (microtiter plate, biotin donor DNA / digoxigenin target DNA, colorimetric); type: biochemical; details: total inhibitory effect (3′ process reaction and strand transfer reaction), initial concentration 100 μg/mL, class symbol; for inhibition at 100 µg/mL: read-out: IC50 (μg/mL)
T1 construct: recombinant HIV integrase
Excerpt: The target compounds 8, 9, 12, 14 were screened against purified HIV IN to determine any potential inhibitory activity. Thus, a synthesized 30 oligonucleotide and a 20 oligonucleotide were used as donor DNA and target DNA, respectively, which were purchased from Shanghai Sangon Biological Engineering Technology & Services Co. Ltd. The donor DNA was biotinylated at the 5′ end (5′ bio-DNA) and immobilized on streptavidin-coated 96-well microtiter plates. To the donor DNA streptavidin-coated 96-well microtiter plate were added test sample, 3' digoxygenin-labeled target DNA (3' dig-DNA) and recombinant HIV integrase and subjected to incubation in optimized condition.
The plate was further washed with phosphate-buffered saline (PBS) containing 0.1% Tween®-20 and anti-digoxigenin-peroxidase (POD, 100 µL) was added to each well. After incubation at 37°C for 60 min, the plate was washed with PBS containing 0.1% Tween®-20. The digoxygenin-labeled products were visualized by adding a POD substrate, tetramethylbenzidine (TMB). The colorimetric reaction was stopped by addition of 0.5 mol/L H2SO4 (100 µL), and the absorbance was measured at 450 nm on a microplate reader. The total inhibitory effect (including inhibiting 3′ process reaction and strand transfer reaction) were obtained by comparing the absorbance of drug group with control group (without test compound).

[2] = Mg2+ binding by UV-Vis titration in CH3CN; type: physicochemical
Protocol: Inspirited by this assumption, preliminary ion binding experiments were also carried out by UV-Vis spectroscopy, using compound 14a as an example. […] As the Mg^2+ concentration (as perchlorate salt) increased, the absorption intensity of the peak at 414 nm first decreased and then the wavelength shifted blue to around 402 nm. […] However, the Mg^2+ induced a blue shift of the absorption curve of compound 14a. Similar behaviors were also observed for other divalent metals, including Mn^2+, Co^2+, Cu^2+, Ca^2+ and Ni^2+ (not shown in Figure 3).
Figure 2 Changes of UV-vis spectra with 14a in CH3CN on addition of 0-16×10^-6 mol·L^-1 of [Mg^2+] at 25 °C. Conditions: [Mg^2+] =2 × 10^-3 M. [14a] = 2 × 10^-5 MBlack: 0×10^-6 mol·L^-1, blue: 2×10^-6 mol·L^-1, red: 4×10^-6 mol·L^-1, navy: 6×10^-6 mol·L^-1, brown: 8×10^-6 mol·L^-1, green: 10×10^-6 mol·L^-1, dark cyan: 12×10^-6 mol·L^-1, brass: 16×10^-6 mol.L^-1.
Figure 3 UV-Vis absorption spectra of free 14a and 14a in the presence of K^+, Na^+ or Mg^2+ ion in CH3CN solution. Conditions: [14a] = 2 × 10^-5 M; [Mg^2+] = [K^+] = [Na^+] = 2×10^-3 M; Black: 14a, blue: Na^+ complex, red: K^+ complex, navy: Mg^2+ complex.

[3] = Solubility in water (qualitative remark); type: physicochemical

| Compound | IC50 (μg/mL) [1] | inhibition at 100 µg/mL [1] [%] | melting point [°C] | change of UV-Vis absorption in the presence of Na+ or K+ ([2]; 100-fold equivalent amount of Na+ or K+) | change of UV-Vis absorption curve upon addition of Mg2+ ([2]; [14a] = 2 × 10^-5 M) | solubility in water [3] |
| --- | --- | --- | --- | --- | --- | --- |
| 1-(3,4-Dimethoxystyrylcarboxylamino)-4-oxo-4H-quinolizine-3-carboxylic acid [9b] | -^2 (“-” indicates that the HIV-IN inhibitory effect was less than 50% at the initial concentration) | – | – | – | – | – |
| O=C(O)c1cc(NS(=O)(=O)c2ccccc2)c2ccccn2c1=O [8a, 1-Phenylsulfonamido-4-oxo-4H-quinolizine-3-carboxylic acid] | – | < 50 | 245 to 247 | – | – | – |
| Cc1ccc(S(=O)(=O)Nc2cc(C(=O)O)c(=O)n3ccccc23)cc1 [8b, 1-p-Methylphenylsulfonamido-4-oxo-4H-quinolizine-3-carboxylic acid] | – | < 50 | > 300 | – | – | – |
| O=C(O)c1cc(NS(=O)(=O)c2ccc(Cl)cc2)c2ccccn2c1=O [8c, 1-p-Chlorophenylsulfonamido-4-oxo-4H-quinolizine-3-carboxylic acid] | – | < 50 | > 300 | – | – | – |
| COc1ccc(S(=O)(=O)Nc2cc(C(=O)O)c(=O)n3ccccc23)cc1 [8d, 1-p-Methoxyphenylsulfonamido-4-oxo-4H-quinolizine-3-carboxylic acid] | – | < 50 | > 300 | – | – | – |
| O=C(O)c1cc(NS(=O)(=O)c2ccc([N+](=O)[O-])cc2)c2ccccn2c1=O [8e, 1-p-Nitrophenylsulfonamido-4-oxo-4H-quinolizine-3-carboxylic acid] | – | < 50 | > 300 | – | – | – |
| COc1cc(C(=O)Nc2cc(C(=O)O)c(=O)n3ccccc23)cc(OC)c1OC [9a, 1-(3,4,5-Trimethoxyphenylcarbonylamino)-4-oxo-4H-quinolizine-3-carboxylic acid] | – | < 50 | 280 to 282 | – | – | – |
| O=C(O)c1cc(-c2nc3ccccc3[nH]2)c2ccccn2c1=O [14a, 1-(1H-Benzimidazol-2-yl)-4-oxo-4H-quinolizine-3-carboxylic acid] | – | < 50 | > 300 | no obvious change | two-step shift of the absorption curve | low solubility |
| O=C(O)c1cc(-c2nc3cc(Cl)ccc3[nH]2)c2ccccn2c1=O [14b, 1-(5(6)-Chloro-1H-benzimidazol-2-yl)-4-oxo-4H-quinolizine-3-carboxylic acid] | – | < 50 | > 300 | – | – | – |
| COc1ccc2[nH]c(-c3cc(C(=O)O)c(=O)n4ccccc34)nc2c1 [14c, 1-(5(6)-Methoxy-1H-benzimidazol-2-yl)-4-oxo-4H-quinolizine-3-carboxylic acid] | – | < 50 | > 300 | – | – | – |
| O=C(O)c1cc(-c2nc3ccccc3s2)c2ccccn2c1=O [compound 12, 1-benzothiazol-2-yl-4-oxo-4H-quinolizine-3-carboxylic acid] | – | < 50 | > 300 | – | – | – |
